Data: patent publication US11519834B2, “In vitro intestinal drug disposition device” (Enphasys AB, priority 2017, dated 2022)
Where two headings read alike, the source gives them in different places.

Assays:
[1] = compared with micronized (ball-milled) danazol, FIG. 7
Caco-2 cells [2] = system: Caco-2 cells
Description: (§1) The buffer was spiked with 10 μM lucifer yellow, which was used as a paracellular marker to check monolayer integrity. HBSS containing 4% bovine albumin serum was used in the receiver compartment to ensure sink conditions.
Caco-2 cells were grown on Transwell inserts (diameter […]) and mounted in the device resulting in a surface area of 28.27 cm^2. The receiver compartment contained 180 ml and the donor 60 ml. A magnetic stirrer was used to mix the buffer in the receiver compartment and a stirrer propeller to mix the buffer in the donor compartment.

Caco-2 cells [3] = assay: Permeation across Caco-2 monolayers in 12-well Transwell plate; format: in vitro ADME, human; conditions: Caco-2 monolayer, 1.12 cm^2, 10 μM lucifer yellow
Description: as §1
Caco-2 cells were grown on inserts in 12-well Transwell plates (surface area 1.12 cm^2). Transwell plates are typically used for in vitro absorption studies. The experiment was performed at 37° C. at 500 rpm with 400 μl of buffer at the donor and 1.2 ml of buffer at the receiver side.

Caco-2 cells [4] = assay: Permeation across Caco-2 monolayers in μFlux; format: in vitro ADME, human; conditions: Caco-2 monolayer, 0.78 cm^2, 10 μM lucifer yellow
Description: HBSS containing 4% bovine albumin serum was used in the receiver compartment to ensure sink conditions. […] Donor and receiver compartments were kept at 37° C. and typically contained 15 ml of buffer. Caco-2 cells were grown in Transwell plates and placed between the compartments resulting in a surface of 0.78 cm^2. Magnetic stirring was used for mixing in both the donor and receiver compartment. The μDISS profiler allowed in situ concentration monitoring with fiber optic probes.

Compound | absorption [1] | Lucifer yellow Papp (Caco-2 cells [2]) [×10⁻⁶ cm/s] | Lucifer yellow Papp (Caco-2 cells [3]) [×10⁻⁶ cm/s] | Lucifer yellow Papp (Caco-2 cells [4]) [×10⁻⁶ cm/s]
C#C[C@]1(O)CC[C@H]2[C@@H]3CCC4=Cc5oncc5C[C@]4(C)[C@H]3CC[C@@]21C [Unprocessed crystalline danazol, danazol] | much lower absorption | – | – | –
lucifer yellow | – | 2.19 | 1 | 39.37
